According to patent US20250205189A1, “DIETARY BUTYRATE FOR TREATING OR PREVENTING AN ALLERGIC DISORDER” (SOCIETE DES PRODUITS NESTLE S.A., priority 2018, published 2025):

Assays:
[1] = system: female BALB/c mice; assay: Cumulative clinical score after oral OVA challenge in mice with pre-existing milk (BLG) allergy; type: in vivo; settings: 600 μg butyrate per mL infant formula ad libitum; 12 oral OVA challenges; compared to Allergic group 1; FIG. 3
Excerpt: An allergy to milk was induced in female BALB/c mice aged eight weeks by sensitization via epicutaneous application of the milk protein β-lactoglobulin (BLG) (“Allergic group”). At this stage all three “Allergic groups” ([…], […] and Allergic group 3) were subjected to the same sensitization via epicutaneous application of the milk protein β-lactoglobulin (BLG) treatment. The non-allergic negative control group received phosphate buffered saline (PBS) only (“Control group”). Three patches were applied in total, each separated by a week without patch in between. Six days following the final skin patch, mice were orally challenged with BLG following a conventional procedure known to those skilled in the art. Serum was processed for ELISA and BLG-specific Immunoglobulin E (IgE) and BLG-specific Immunoglobulin G1 (IgG1) were determined (FIGS. 1 and 2 respectively).
Following the induction of milk allergy, “Control group” and “Allergic group 1” received infant formula for nutritional management of cow's milk allergy (the extensively hydrolyzed infant formula available commercially under the Trademark Althéra® was used in this example) reconstituted in the drinking water for a three-week period. […]

[2] = system: OVA-specific IgE, OVA-specific IgG1; assay: Serum ELISA of OVA-specific IgE and IgG1 after oral OVA challenge; type: in vivo, mice; settings: 600 μg butyrate per mL infant formula, compared across the three Allergic groups
[3] = system: mast cell protease-1 (MCPT-1); assay: Serum ELISA of mast cell protease-1 after oral OVA challenge; type: in vivo, mice; settings: 600 μg butyrate per mL infant formula, FIG. 6
[4] = system: GATA-3; settings: cited from earlier work

CCCC(=O)[O-].[Na+] [sodium butyrate]
Allergic symptoms (cumulative clinical score) [1]: reduction of allergic symptoms | OVA-specific IgE level ([2]; FIG. 4): similar | OVA-specific IgG1 level ([2]; FIG. 5): similar | Mast cell protease-1 (MCPT-1) [3]: reduction in mast cell protease-1 | GATA-3 or FoxP3 expression ([4]; 0.1 mM, CD4+ T cells under Th2 polarizing conditions (Furusawa 2013)): insufficient to influence GATA-3 or FoxP3 expression | Gata3 expression ([4]; 1 mM in vitro, Th2 polarized CD4+ T cells (Kespohl 2017)): sufficient to ameliorate Gata3 expression
